Target: T1, Cbl-b (Homo sapiens, UniProt Q13191)
T1 construct: Cbl-b-HiBit KI Jurkat Cells were purchased from Promega; host or cells: Cbl-b-HiBiT knock-in Jurkat cells
Test: Cbl-b Degradation Method B (Nano-Glo HiBiT lytic detection)
Type: cell-based
Conditions: Cbl-b-HiBit KI Jurkat Cells, incubated at least 6-24 hours; for DC50: half maximal degradation, read-out: Cbl-b Degredation Method B IC50; for Dmax: maximum degradation observed, read-out: Cbl-b Degredation Method B Dmax (%)
How it was run: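 Cbl-b-HiBiT knock-in Jurkat cells (20,000/well) were treated after ~24 h plating with an 11-point 1:3 series for 6-24 h at 37° C. Remaining Cbl-b measured by Nano-Glo HiBiT lytic luminescence. DC50 and Dmax expressed as % of control.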

T1 sequence (Q13191 whole entry): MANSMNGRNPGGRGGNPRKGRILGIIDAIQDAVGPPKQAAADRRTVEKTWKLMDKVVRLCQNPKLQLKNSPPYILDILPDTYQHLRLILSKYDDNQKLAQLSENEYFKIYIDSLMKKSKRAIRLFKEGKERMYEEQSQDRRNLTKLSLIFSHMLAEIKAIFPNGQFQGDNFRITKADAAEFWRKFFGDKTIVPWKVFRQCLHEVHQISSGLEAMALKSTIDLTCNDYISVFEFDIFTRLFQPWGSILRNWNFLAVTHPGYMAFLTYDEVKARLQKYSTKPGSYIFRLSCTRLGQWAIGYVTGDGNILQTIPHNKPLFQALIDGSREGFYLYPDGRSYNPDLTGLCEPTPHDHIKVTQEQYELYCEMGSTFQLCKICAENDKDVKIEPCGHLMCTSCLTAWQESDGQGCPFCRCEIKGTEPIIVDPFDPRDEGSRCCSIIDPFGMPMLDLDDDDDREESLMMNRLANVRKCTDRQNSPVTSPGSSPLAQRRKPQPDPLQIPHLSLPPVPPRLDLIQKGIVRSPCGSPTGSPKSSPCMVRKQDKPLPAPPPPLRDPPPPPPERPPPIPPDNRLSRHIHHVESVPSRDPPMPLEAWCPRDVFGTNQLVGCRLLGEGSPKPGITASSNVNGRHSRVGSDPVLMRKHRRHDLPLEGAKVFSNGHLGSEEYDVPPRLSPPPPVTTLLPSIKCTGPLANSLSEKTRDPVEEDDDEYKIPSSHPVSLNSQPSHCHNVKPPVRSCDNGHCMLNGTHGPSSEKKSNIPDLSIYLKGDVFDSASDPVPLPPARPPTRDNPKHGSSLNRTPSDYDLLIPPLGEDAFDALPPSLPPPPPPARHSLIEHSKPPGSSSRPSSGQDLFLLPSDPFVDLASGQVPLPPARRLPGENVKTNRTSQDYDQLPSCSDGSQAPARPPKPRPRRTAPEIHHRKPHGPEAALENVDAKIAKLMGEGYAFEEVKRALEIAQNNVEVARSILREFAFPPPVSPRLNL

| Structure (SMILES) | DC50 | Dmax |
| --- | --- | --- |
| Cn1cnnc1CC1(c2cccc(-n3cc4c(C(F)(F)F)cc(CN5CCC[C@H](CN6CCC[C@H](CN7CCN(c8ccc9c(c8F)CN(C8CCC(=O)NC8=O)C9=O)CC7)C6)C5)cc4n3)c2)COC1 (stereo partly drawn) [Example 155, 3-[4-fluoro-5-[4-[[(3S)-1-[[(3R)-1-[[2-[3-[3-[(4-methyl-1,2,4-triazol-3-yl)methyl]oxetan-3-yl]phenyl]-4-(trifluoromethyl)indazol-6-yl]methyl]-3-piperidyl]methyl]-3-piperidyl]methyl]piperazin-1-yl]-1-oxo-isoindolin-2-yl]piperidine-2,6-dione] | > 500 nM |  |
| Cn1cnnc1CC1(c2cccc(N3Cc4c(cc(CN5CCC(CCN6CCN(c7ccc8c(c7)C(=O)N(C7CCC(=O)NC7=O)C8=O)CC6)CC5)cc4C(F)(F)F)C3=O)c2)COC1 (stereo not shown) [Example 39, 2-(2,6-dioxopiperidin-3-yl)-5-{4-[2-(1-{[2-(3-{3-[(4-methyl-4H-1,2,4-triazol-3-yl)methyl]oxetan-3-yl}phenyl)-3-oxo-7-(trifluoromethyl)-2,3-dihydro-1H-isoindol-5-yl]methyl}piperidin-4-yl)ethyl]piperazin-1-yl}-2,3-dihydro-1H-isoindole-1,3-dione] | > 500 nM |  |
| Cn1cnnc1CC1(c2cccc(-n3cc4ccc(N5CC6(CCN(CC7CCN(c8ccc9c(c8Cl)CN(C8CCC(=O)NC8=O)C9=O)CC7)CC6)C5)cc4n3)c2)COC1 (stereo not shown) [Example 260, 3-{4-chloro-5-[4-({2-[2-(3-{3-[(4-methyl-4H-1,2,4-triazol-3-yl)methyl]oxetan-3-yl}phenyl)-2H-indazol-6-yl]-2,7-diazaspiro[3.5]nonan-7-yl}methyl)piperidin-1-yl]-1-oxo-2,3-dihydro-1H-isoindol-2-yl}piperidine-2,6-dione] | > 500 nM |  |
| COc1ccc(C(=O)N2CCC(CN3CCN(Cc4cc5c(c(C(F)(F)F)c4)CN(c4cccc(C6(Cc7nncn7C)COC6)c4)C5=O)CC3)CC2)cc1N1CCC(=O)NC1=O [Example 53, 1-(2-methoxy-5-{4-[(4-{[2-(3-{3-[(4-methyl-4H-1,2,4-triazol-3-yl)methyl]oxetan-3-yl}phenyl)-3-oxo-7-(trifluoromethyl)-2,3-dihydro-1H-isoindol-5-yl]methyl}piperazin-1-yl)methyl]piperidine-1-carbonyl}phenyl)-1,3-diazinane-2,4-dione] | > 500 nM |  |
| Cc1cc(N2CCC(CN3CCC4(CC3)CN(c3ccc5cn(-c6cccc(C7(Cc8nncn8C)COC7)c6)nc5c3)C4)CC2)c(F)c2c1C(=O)N(C1CCC(=O)NC1=O)C2 (stereo not shown) [Example 261, 3-{4-fluoro-7-methyl-5-[4-({2-[2-(3-{3-[(4-methyl-4H-1,2,4-triazol-3-yl)methyl]oxetan-3-yl}phenyl)-2H-indazol-6-yl]-2,7-diazaspiro[3.5]nonan-7-yl}methyl)piperidin-1-yl]-1-oxo-2,3-dihydro-1H-isoindol-2-yl}piperidine-2,6-dione] | > 500 nM |  |
| Cn1cnnc1CC1(c2cccc(N3Cc4c(cc(CN5CCN(C[C@H]6CC[C@H](OC7CCN(c8ccc9c(c8F)CN(C8CCC(=O)NC8=O)C9=O)CC7)CC6)CC5(C)C)cc4C(F)(F)F)C3=O)c2)CC(C#N)C1 (stereo partly shown) [Example 254, (1r**,3r**)-3-(3-{6-[(2,2-dimethyl-4-{[(1r*,4r*)-4-({1-[2-(2,6-dioxopiperidin-3-yl)-4-fluoro-1-oxo-2,3-dihydro-1H-isoindol-5-yl]piperidin-4-yl}oxy)cyclohexyl]methyl}piperazin-1-yl)methyl]-1-oxo-4-(trifluoromethyl)-2,3-dihydro-1H-isoindol-2-yl}phenyl)-3-[(4-methyl-4H-1,2,4-triazol-3-yl)methyl]cyclobutane-1-carbonitrile] | 5 to 50 nM | > 70% |
| C[C@@H]1CN(Cc2cc3c(c(C(F)(F)F)c2)CN(c2cccc(C4(Cc5nncn5C)COC4)c2)C3=O)CCN1C[C@H]1CC[C@H](OC2CCN(c3ccc4c(c3F)CN(C3CCC(=O)NC3=O)C4=O)CC2)CC1 (stereo partly drawn) [Example 244, 3-[4-fluoro-1-oxo-5-(4-{[(1r*,4r*)-4-{[(2R)-2-methyl-4-{[2-(3-{3-[(4-methyl-4H-1,2,4-triazol-3-yl)methyl]oxetan-3-yl}phenyl)-3-oxo-7-(trifluoromethyl)-2,3-dihydro-1H-isoindol-5-yl]methyl}piperazin-1-yl]methyl}cyclohexyl]oxy}piperidin-1-yl)-2,3-dihydro-1H-isoindol-2-yl]piperidine-2,6-dione] | < 5 nM | > 70% |
| C[C@@H]1C[C@H](CN2CCC(CN3CCC(CN4CCN(c5ccc6c(c5)C(=O)N(C5CCC(=O)NC5=O)C6=O)CC4)CC3)CC2)CN(Cc2cc3c(c(C(F)(F)F)c2)CN(c2cccc(C4(Cc5nncn5C)COC4)c2)C3=O)C1 (stereo partly drawn) [Example 72, 2-(2,6-dioxopiperidin-3-yl)-5-[4-({1-[(1-{[(3R,5R)-5-methyl-1-{[2-(3-{3-[(4-methyl-4H-1,2,4-triazol-3-yl)methyl]oxetan-3-yl}phenyl)-3-oxo-7-(trifluoromethyl)-2,3-dihydro-1H-isoindol-5-yl]methyl}piperidin-3-yl]methyl}piperidin-4-yl)methyl]piperidin-4-yl}methyl)piperazin-1-yl]-2,3-dihydro-1H-isoindole-1,3-dione] | < 5 nM | 35 to 70% |
| Cc1cc(N2CCC(O[C@H]3CC[C@H](CN4CCN(Cc5cc6c(c(C(F)(F)F)c5)CN(c5cccc(C7(Cc8nncn8C)CC7)c5)C6=O)C(C)(C)C4)CC3)CC2)c(F)c2c1C(=O)N(C1CCC(=O)NC1=O)C2 (stereo partly shown) [Example 227, 3-[4-fluoro-7-methyl-1-oxo-5-(4-{[(1r,4r)-4-[(3,3-dimethyl-4-{[2-(3-{1-[(4-methyl-4H-1,2,4-triazol-3-yl)methyl]cyclopropyl}phenyl)-3-oxo-7-(trifluoromethyl)-2,3-dihydro-1H-isoindol-5-yl]methyl}piperazin-1-yl)methyl]cyclohexyl]oxy}piperidin-1-yl)-2,3-dihydro-1H-isoindol-2-yl]piperidine-2,6-dione] | < 5 nM | > 70% |
| Cn1cnnc1CC1(c2cccc(N3Cc4c(cc(CN5CCC(CN6CCN(CC7CCN(c8ccc9c(c8)C(=O)N(C8CCC(=O)NC8=O)C9=O)CC7)CC6)CC5)cc4C(F)(F)F)C3=O)c2)COC1 (stereo not shown) [Example 46, 2-(2,6-dioxopiperidin-3-yl)-5-[4-({4-[(1-{[2-(3-{3-[(4-methyl-4H-1,2,4-triazol-3-yl)methyl]oxetan-3-yl}phenyl)-3-oxo-7-(trifluoromethyl)-2,3-dihydro-1H-isoindol-5-yl]methyl}piperidin-4-yl)methyl]piperazin-1-yl}methyl)piperidin-1-yl]-2,3-dihydro-1H-isoindole-1,3-dione] | > 500 nM |  |
| Cn1cnnc1C[C@]1(c2cccc(-n3cc4c(C(F)(F)F)cc(N5CC6(CCN(CC7CCN(c8ccc9c(c8Cl)CN(C8CCC(=O)NC8=O)C9=O)CC7)CC6)C5)cc4n3)c2)C[C@H](C#N)C1 (stereo partly shown) [Example 262, (1r,3r)-3-(3-{6-[7-({1-[4-chloro-2-(2,6-dioxopiperidin-3-yl)-1-oxo-2,3-dihydro-1H-isoindol-5-yl]piperidin-4-yl}methyl)-2,7-diazaspiro[3.5]nonan-2-yl]-4-(trifluoromethyl)-2H-indazol-2-yl}phenyl)-3-[(4-methyl-4H-1,2,4-triazol-3-yl)methyl]cyclobutane-1-carbonitrile] | 5 to 50 nM | < 35% |

— US20260184710A1, “CASITAS B-LINEAGE LYMPHOMA PROTOONCOGENE B (CBL-B) DEGRADING COMPOUNDS AND ASSOCIATED METHODS OF USE” (Arvinas Operations, Inc., priority 2022, published 2026)
